Assay results: patent publication US10738028B2, “Spiro three-membered ring, spiro five-membered ring peptide deformylase inhibitor and use thereof in antibacteria and anti-tumor” (priority 2016, dated 2020)
Converted amounts (≈) assume the structure as drawn.

Tests used:
[1] = due to instability in metabolism in the body; cited from earlier work
[2] = test system: Enterococcus faecalis (EFA); test: MIC, two-fold agar dilution (CLSI), clinical isolates; assay type: cell-based
Outline: (§1)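 Samples are serially diluted two-fold in agar following CLSI guidance. Plates are then inoculated with the tested strains. The lowest inhibiting concentration is recorded as MIC.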

[3] = test system: Escherichia coli (including ESBLs, non-ESBLs); test: as above; assay type: cell-based
Outline: as §1

[4] = test system: methicillin-resistant Staphylococcus aureus (MRSA); test: as above; assay type: cell-based
Outline: as §1

[5] = test system: methicillin-resistant Staphylococcus epidermidis (MRSE); test: as above; assay type: cell-based
Outline: as §1

[6] = test system: methicillin-sensitive Staphylococcus aureus (MSSA); test: as above; assay type: cell-based
Outline: as §1

[7] = test system: methicillin-sensitive Staphylococcus epidermidis (MSSE); test: as above; assay type: cell-based
Outline: as §1

[8] = test system: HCT-116 colorectal cancer cell line; test: CCK-8 proliferation inhibition; assay type: cell-based; settings: Homo sapiens, HCT-116, 72 h, read-out: HCT116 inhibition rate/%
Outline: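 Cells were plated overnight at 2000 cells/well, then compound in culture medium was added at a range of final concentrations. After 72 hours in a CO2 incubator, medium was replaced with 1:10 CCK-8 solution for the read-out.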

[9] = test system: methemoglobin in blood samples of three healthy volunteers; test: Toxicity on methemoglobin in vitro (whole blood with S9 and NADPH, absorbance at 630 nm); assay type: cell-based, human; settings: 500 μM compound; whole blood + S9 + NADPH; 5 hours at 37° C.
Outline: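 Fresh EDTA whole blood from three healthy volunteers incubated 5 h at 37 °C with human liver S9 (2 mg/mL), NADPH-generating system and compound at 500 μM final. Lysed in 1% Triton X-100; MetHb % from 630 nm absorbance relative to ferricyanide-oxidized blood.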

the test strains = test: MIC against the test strains (strain not given); assay type: cell-based; settings: read-out: MIC (azole amide bioisosteres)
Text: 1. The invention adopts the two-fold agar dilution method recommended by the operating procedure of antimicrobial susceptibility testing set by American Clinical and Laboratory Standards Institute (CLSI) to determine the Minimum Inhibitory Concentration (MIC) of the test samples against the tested strains.

[10] = test system: Enterococcus faecium (EFM); test: MIC, two-fold agar dilution (CLSI), clinical isolates; assay type: cell-based
Outline: as §1

[11] = test system: Moraxella catarrhalis (BCA); test: as above; assay type: cell-based
Outline: as §1

[12] = test system: Streptococcus pneoumoniae (SPN); test: as above; assay type: cell-based
Outline: as §1

[13] = at a high dose; Clin. Pharmacol. Ther. 2011, 90, 256; cited from earlier work

SMILES: CCCCC[C@H](CC(=O)NO)C(=O)N[C@H](C(=O)N1CCC[C@H]1CO)C(C)C [Actinonin]
- activity in vivo [1]: no activity in vivo

SMILES: CCCC[C@H](CN(O)C=O)C(=O)N1CC2(CC2)C[C@H]1c1nnc2ccccn12 [Example 13, N—((R)-2-((S)-6-([1,2,4]triazole[4,3-a]pyridin-3-yl)-5-azaspiro[2.4]heptane-5-carbonyl)hexyl)-N-hydroxyamide]
- MIC (anti-bacterial activity) ([2]; strain EFA 14-1): 4 µg/mL (≈ 10.4 µM)
- MIC (anti-bacterial activity) ([2]; strain EFA 14-2): 8 µg/mL (≈ 20.8 µM)
- MIC (anti-bacterial activity) ([2]; strain EFA 14-3): 8 µg/mL (≈ 20.8 µM)
- MIC (anti-bacterial activity) ([2]; strain EFA 14-5): 8 µg/mL (≈ 20.8 µM)
- MIC (anti-bacterial activity) ([3]; strain ECO+ 14-1): 2 µg/mL (≈ 5.19 µM)
- MIC (anti-bacterial activity) ([3]; strain ECO+ 14-2): 128 µg/mL (≈ 332 µM)
- MIC (anti-bacterial activity) ([3]; strain ECO− 14-1): 128 µg/mL (≈ 332 µM)
- MIC (anti-bacterial activity) ([3]; strain ECO− 14-2): 128 µg/mL (≈ 332 µM)
- MIC (anti-bacterial activity) ([4]; strain MRSA 14-1): 1 µg/mL (≈ 2.59 µM)
- MIC (anti-bacterial activity) ([4]; strain MRSA 14-2): 1 µg/mL (≈ 2.59 µM)
- MIC (anti-bacterial activity) ([4]; strain MRSA 14-4): 1 µg/mL (≈ 2.59 µM)
- MIC (anti-bacterial activity) ([4]; strain MRSA 14-5): 1 µg/mL (≈ 2.59 µM)
- MIC (anti-bacterial activity) ([4]; strain printed MRSA 14-1 (second line of that name, r23, before MRSE 14-2)): 0.5 µg/mL (≈ 1.3 µM)
- MIC (anti-bacterial activity) ([5]; strain MRSE 14-2): 0.5 µg/mL (≈ 1.3 µM)
- MIC (anti-bacterial activity) ([5]; strain MRSE 14-3): 0.25 µg/mL (≈ 0.649 µM)
- MIC (anti-bacterial activity) ([5]; strain MRSE 14-4): 1 µg/mL (≈ 2.59 µM)
- MIC (anti-bacterial activity) ([6]; strain MSSA 14-1): 1 µg/mL (≈ 2.59 µM)
- MIC (anti-bacterial activity) ([6]; strain MSSA 14-2): 1 µg/mL (≈ 2.59 µM)
- MIC (anti-bacterial activity) ([6]; strain MSSA 14-3): 1 µg/mL (≈ 2.59 µM)
- MIC (anti-bacterial activity) ([6]; strain MSSA 14-4): 1 µg/mL (≈ 2.59 µM)
- MIC (anti-bacterial activity) ([7]; strain MSSE 14-1): 0.25 µg/mL (≈ 0.649 µM)
- MIC (anti-bacterial activity) ([7]; strain MSSE 14-2): 0.5 µg/mL (≈ 1.3 µM)
- MIC (anti-bacterial activity) ([7]; strain MSSE 14-3): 0.5 µg/mL (≈ 1.3 µM)
- MIC (anti-bacterial activity) ([7]; strain MSSE 14-4): 0.5 µg/mL (≈ 1.3 µM)
- inhibition at 30 µM [8]: 13%
- MetHb % (n = 3) [9]: 1.15 ± 0.06%
- MIC (the test strains): 0.5 to 2 µg/mL (≈ 1.3 to 5.19 µM)

SMILES: CCCC[C@H](CN(O)C=O)C(=O)N1CCC[C@H]1C(=O)Nc1ccc(F)c[n+]1[O-] [LBM415, reference compound]
- Anti-bacterial activity (MIC) ([2]; strain EFA 15-1): 2 µg/mL
- Anti-bacterial activity (MIC) ([2]; strain EFA 15-2): 2 µg/mL
- Anti-bacterial activity (MIC) ([2]; strain EFA 15-3): 2 µg/mL
- Anti-bacterial activity (MIC) ([2]; strain EFA 15-4): 2 µg/mL
- Anti-bacterial activity (MIC) ([2]; strain EFA 15-5): 2 µg/mL
- Anti-bacterial activity (MIC) ([2]; strain EFA 15-6): 128 µg/mL
- Anti-bacterial activity (MIC) ([2]; strain EFA 15-9): 128 µg/mL
- Anti-bacterial activity (MIC) ([10]; strain EFM 15-1): 2 µg/mL
- Anti-bacterial activity (MIC) ([10]; strain EFM 15-2): 2 µg/mL
- Anti-bacterial activity (MIC) ([10]; strain EFM 15-3): 4 µg/mL
- Anti-bacterial activity (MIC) ([10]; strain EFM 15-4): 8 µg/mL
- Anti-bacterial activity (MIC) ([10]; strain EFM 15-5): 4 µg/mL
- Anti-bacterial activity (MIC) ([10]; strain EFM 15-6): 4 µg/mL
- Anti-bacterial activity (MIC) ([3]; strain ECO+ 15-1): 64 µg/mL
- Anti-bacterial activity (MIC) ([3]; strain ECO+ 15-2): 64 µg/mL
- Anti-bacterial activity (MIC) ([3]; strain ECO+ 15-3): 64 µg/mL
- Anti-bacterial activity (MIC) ([3]; strain ECO+ 15-4): 64 µg/mL
- Anti-bacterial activity (MIC) ([3]; strain ECO− 15-1): 64 µg/mL
- Anti-bacterial activity (MIC) ([3]; strain ECO− 15-2): 64 µg/mL
- Anti-bacterial activity (MIC) ([3]; strain ECO− 15-3): 64 µg/mL
- Anti-bacterial activity (MIC) ([3]; strain ECO− 15-4): 64 µg/mL
- MIC ([11]; Moraxella catarrhalis, 7 clinical isolates, range over strains, read-out: Moraxella catarrhalis (n = 7) MIC): 0.5 to 2 µg/mL (≈ 1.26 to 5.05 µM)
- Anti-bacterial activity (MIC) ([11]; strain BCA 14-1): 2 µg/mL
- Anti-bacterial activity (MIC) ([11]; strain BCA 14-4): 2 µg/mL
- Anti-bacterial activity (MIC) ([11]; strain BCA 14-5): 1 µg/mL
- Anti-bacterial activity (MIC) ([11]; strain BCA 14-6): 2 µg/mL
- Anti-bacterial activity (MIC) ([11]; strain BCA 14-7): 0.5 µg/mL
- Anti-bacterial activity (MIC) ([11]; strain BCA 14-8): 0.5 µg/mL
- Anti-bacterial activity (MIC) ([11]; strain BCA 14-10): 0.5 µg/mL
- Anti-bacterial activity (MIC) ([12]; strain SPN 16-2): 2 µg/mL
- Anti-bacterial activity (MIC) ([12]; strain SPN 16-4): 2 µg/mL
- MIC ([4]; Staphylococcus aureus, MRSA, range over strains, read-out: minimum inhibitory concentration MIC against methicillin-resistant Staphylococcus (MRSA)): 0.5 to 1 µg/mL (≈ 1.26 to 2.52 µM)
- Anti-bacterial activity (MIC) ([4]; strain MRSA 15-1): 1 µg/mL
- Anti-bacterial activity (MIC) ([4]; strain MRSA 15-2): 1 µg/mL
- Anti-bacterial activity (MIC) ([4]; strain MRSA 15-3): 1 µg/mL
- Anti-bacterial activity (MIC) ([4]; strain MRSA 15-4): 0.5 µg/mL
- Anti-bacterial activity (MIC) ([5]; strain MRSE 15-1): 0.125 µg/mL
- Anti-bacterial activity (MIC) ([5]; strain MRSE 15-2): 0.125 µg/mL
- Anti-bacterial activity (MIC) ([5]; strain MRSE 15-3): 0.06 µg/mL
- Anti-bacterial activity (MIC) ([5]; strain MRSE 15-7): 0.125 µg/mL
- Anti-bacterial activity (MIC) ([6]; strain MSSA 15-3): 0.5 µg/mL
- Anti-bacterial activity (MIC) ([6]; strain MSSA 15-4): 0.5 µg/mL
- Anti-bacterial activity (MIC) ([6]; strain MSSA 15-5): 0.5 µg/mL
- Anti-bacterial activity (MIC) ([6]; strain MSSA 15-6): 0.5 µg/mL
- Anti-bacterial activity (MIC) ([7]; strain MSSE 15-3): 0.06 µg/mL
- Anti-bacterial activity (MIC) ([7]; strain MSSE 15-4): 0.5 µg/mL
- Anti-bacterial activity (MIC) ([7]; strain MSSE 15-5): 0.06 µg/mL
- Anti-bacterial activity (MIC) ([7]; strain MSSE 15-6): 128 µg/mL
- MetHb % (n = 3) [9]: 3.05 ± 0.01%
- adverse effect in Phase I clinical trial [13]: could cause methemoglobinemia at a high dose
